Reference: US7932269B2, “Sulfonamides as orexin antagonists” (Hoffmann-La Roche Inc., priority 2008, dated 2011)
No end group written: not given here.

target: T1, human orexin-2 (hOX2) receptors (Homo sapiens, UniProt O43614); assay: Intracellular Ca2+ mobilization assay (FLIPR), orexin-A as agonist; assay type: cell-based; conditions: CHO(dHFr-) cells stably expressing hOX2; antagonist applied 25 min before EC80 of orexin-A; Kb=IC50/(1+[A]/EC50); read-out: Kb (μM) OX2R (human)
T1 construct: expressed in transfected cells
T1 sequence (O43614 1-444): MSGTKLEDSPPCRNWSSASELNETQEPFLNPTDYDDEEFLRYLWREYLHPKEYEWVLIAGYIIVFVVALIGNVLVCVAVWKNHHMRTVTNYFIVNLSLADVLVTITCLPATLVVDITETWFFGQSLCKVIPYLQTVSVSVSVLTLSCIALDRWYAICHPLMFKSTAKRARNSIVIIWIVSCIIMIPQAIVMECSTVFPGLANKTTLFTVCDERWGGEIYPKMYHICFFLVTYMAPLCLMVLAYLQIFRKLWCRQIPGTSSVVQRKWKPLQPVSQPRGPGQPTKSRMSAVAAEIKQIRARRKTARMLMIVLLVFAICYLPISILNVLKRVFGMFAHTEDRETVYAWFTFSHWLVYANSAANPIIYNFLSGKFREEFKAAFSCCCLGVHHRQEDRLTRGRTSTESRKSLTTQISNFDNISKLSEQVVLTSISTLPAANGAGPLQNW
Protocol: Intracellular Ca^2+ Mobilization Assay
The Chinese Hamster Ovary (dHFr-) mutant cell line stably expressing human orexin-1 (hOX1) or human orexin-2 (hOX2) receptors were maintained in Dulbecco's Modified Eagle Medium (1X) with GlutaMax™ 1, 4500 mg/L D-Glucose and Sodium Pyruvate (Catalog No. 31966-021, Invitrogen, Carlsbad, Calif.), 5% dialyzed fetal calf serum (Catalog No. 26400-044), 100 μg/ml penicillin and 100 μg/ml streptomycin. The cells were seeded at 5×10^4 cells/well in the poly-D-lysine treated, 96-well, black/clear-bottomed plates (Catalog No. BD356640, BD Biosciences, Palo Alto, Calif.). 24 h later, the cells were loaded for 1 hr at 37° C. with 4 μM Flou-4 acetoxymethyl ester (Catalog No. F-14202, Molecular Probes, Eugene, Oreg.) in FLIPR buffer (1×HBSS, 20 mM HEPES, 2.5 mM Probenecid). Hanks' Balanced Salt Solution (HBSS) (10X) (catalog No. 14065-049) and HEPES (1M) (catalog No. 15630-056) were purchased from Invitrogen, Carlsbad, Calif. Probenecid (250 mM) (catalog No. P8761) was from Sigma, Buchs, Switzerland. The cells were washed five times with FLIPR buffer to remove excess dye and intracellular calcium mobilization, [Ca^2+] were measured using a Fluorometric Imaging Plate Reader (FLIPR-96, Molecular Devices, Menlo Park, Calif.) as described previously (Malherbe et al., Mol. Pharmacol., 64, 823-832, 2003). Orexin A (catalog No.1455, Toris Cookson Ltd, Bristol, UK) was used as agonist. Orexin A ([…] stock solution in DMSO) was diluted in FLIPR buffer +0.1% BSA. The EC50 and EC80 values of orexin-A were measured daily from standard agonist concentration-response curves in CHO(dHFr-)-OX1R and —OX2R cell lines. All compounds were dissolved in 100% DMSO. Inhibition curves were determined by addition of 11 concentrations (0.0001-10 μM) of inhibitory compounds and using EC80 value of orexin-A as agonist (a concentration which gave 80% of max agonist response, determined daily). The antagonists were applied 25 min (incubation at 37° C.) before the application of the agonist. Responses were measured as peak increase in fluorescence minus basal, normalized to the maximal stimulatory effect induced by EC80 value of orexin-A or orexin-B. Inhibition curves were fitted according to the Hill equation: y=100/(1+(x/1C50)^nH), where nH=slope factor using Excel-fit 4 software (Microsoft). Kb values were calculated according to the following equation Kb=IC50/(1+[A]/EC50) where A is the concentration of agonist added which is very close to agonist EC80 value, and IC50 and EC50 values were derived from the antagonist inhibition and orexin-A or B agonist curves, respectively.

Row | Kb [µM] | Molecule
1 | 0.0019 | Cc1ccc(S(=O)(=O)N(CC(=O)N2CCCC2c2ccccc2)c2ccc(Cl)cc2)cc1 (stereo not drawn) [Example 5, N-(4-Chloro-phenyl)-4-methyl-N-[2-oxo-2-(2-phenyl-pyrrolidin-1-yl)-ethyl]-benzenesulfonamide]
2 | 0.0017 | COc1cccc(S(=O)(=O)N(CC(=O)N2CCCC2c2ccccc2)c2ccc(Cl)cc2)c1 (stereo not drawn) [Example 1, N-(4-Chloro-phenyl)-3-methoxy-N-[2-oxo-2-(2-phenyl-pyrrolidin-1-yl)-ethyl]-benzenesulfonamide]
3 | 0.0079 | COc1ccc(S(=O)(=O)N(CC(=O)N2CCCC2c2ccc(F)cc2)c2ccc(F)cc2)cc1 (stereo not drawn) [Example 45, N-(4-Fluoro-phenyl)-N-{2-[2-(4-fluoro-phenyl)-pyrrolidin-1-yl]-2-oxo-ethyl}-4-methoxy-benzenesulfonamide]
4 | 0.0064 | COc1ccc(S(=O)(=O)N(CC(=O)N2CCCC2c2ccc(F)cc2)c2cccc(F)c2)cc1 (stereo not drawn) [Example 31, N-(3-Fluoro-phenyl)-N-{2-[2-(4-fluoro-phenyl)-pyrrolidin-1-yl]-2-oxo-ethyl}-4-methoxy-benzenesulfonamide]
5 | 0.0006 | COc1cccc(S(=O)(=O)N(CC(=O)N2CCCC2c2ccc(F)cc2)c2ccc(Cl)cc2)c1 (stereo not drawn) [Example 21, N-(4-Chloro-phenyl)-N-{2-[2-(4-fluoro-phenyl)-pyrrolidin-1-yl]-2-oxo-ethyl}-3-methoxy-benzenesulfonamide]

tested on: rat; assay: not given; conditions: icv administration; cited from earlier work

Row | Molecule | reduction of total REM sleep [%]
6 | OX-A: orexin-A/hypocretin1, 33 amino acid hypothalamic neuropeptide derived from prepro-orexin (QPLPDCCRQKTCSCRLYELLHGAGNHAAGILTL; ends and bridges not checked; cysteine pairing not given here; UniProt O43612 34-66, looked up) | 84
